For this assay, the target named is fully phosphorylated, active Mouse ERK2 protein (Mus musculus (Mouse), UniProt P63085). The assay is described as follows: Active ERK2 (aERK) IMAP assay. Format: biochemical. The following applies: IMAP fluorescence polarization; 30 μM ATP; 30 minute pre-incubation. As for the experimental part: 14 μl of kinase buffer (10 mM Tris.HCl pH 7.2, 10 mM MgCl2, 0.01% Tween-20, 1 mM DTT) containing 0.4 ng unphosphorylated Mouse ERK2 protein was added to each well of a black 384-well assay plate. […] DMSO concentration during initial incubation is 6.7%. […] DMSO concentration during ERK activation was 4%. After one hour, reactions were terminated by addition of 60 μl IMAP detections beads in binding buffer (Molecular Devices). Binding was allowed to equilibrate for 30 minutes before reading the plate on an LJL Analyst Fluorescence Polarization plate reader.
Active ERK2 (aERK) Assay:
Activated ERK2 activity was also determined in the IMAP assay format using the procedure outlined above. […] Reactions proceeded for 30 minutes before termination by addition of 60 μl IMAP detection beads in binding buffer. Plates were read as above after 30 minute binding equilibration.
In general terms: Fluorescence polarisation rises when a labelled molecule tumbles more slowly, as on binding a larger partner.

Broadly, the IC50 is the concentration that gives 50% inhibition. Low readings indicate greater potency in that assay, high ones weaker potency in that assay.

fully phosphorylated, active Mouse ERK2 protein, sequence (P63085 whole entry): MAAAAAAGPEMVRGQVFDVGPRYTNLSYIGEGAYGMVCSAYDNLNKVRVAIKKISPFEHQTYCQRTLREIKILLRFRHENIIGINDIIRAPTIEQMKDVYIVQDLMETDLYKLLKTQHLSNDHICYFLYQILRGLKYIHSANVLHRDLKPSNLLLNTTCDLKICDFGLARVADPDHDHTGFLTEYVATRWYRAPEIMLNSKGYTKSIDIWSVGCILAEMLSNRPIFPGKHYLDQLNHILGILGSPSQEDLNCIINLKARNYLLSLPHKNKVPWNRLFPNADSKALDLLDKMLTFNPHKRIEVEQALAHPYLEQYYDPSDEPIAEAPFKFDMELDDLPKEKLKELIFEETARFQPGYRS

`Cc1cc(-c2n[nH]c3ccc(C(=O)N[C@@H]4CCC[C@@](O)(Cn5cnc6ncccc65)C4)cc23)ccn1` (relative stereo) [compound 81, N-[cis-3-hydroxy-3-(1H-imidazo[4,5-b]pyridin-1-ylmethyl)cyclohexyl]-3-(2-methyl-4-pyridinyl)-1H-indazole-5-carboxamide] displayed an IC50 of 825 nM. `Cc1cc(-c2n[nH]c3ccc(C(=O)N[C@@H]4CCC[C@@](O)(Cn5cnc6cccnc65)C4)cc23)ccn1` (relative stereo) [compound 82, N-[cis-3-hydroxy-3-(3H-imidazo[4,5-b]pyridin-3-ylmethyl)cyclohexyl]-3-(2-methyl-4-pyridinyl)-1H-indazole-5-carboxamide] showed an IC50 of 97.6 nM. With `Cc1cc(-c2n[nH]c3ccc(C(=O)N[C@@H]4CCC[C@](O)(Cn5ncccc5=O)C4)cc23)ccn1` (relative stereo) [compound 83, N-[trans-3-hydroxy-3-[(6-oxo-1(6h)-pyridazinyl)methyl]cyclohex-yl]-3-(2-methyl-4-pyridinyl)-1H-indazole-5-carboxamide] the figure was 1000 nM; with `Cc1cc(-c2n[nH]c3ccc(C(=O)N[C@@H]4CCC[C@@](O)(Cn5ncccc5=O)C4)cc23)ccn1` (relative stereo) [compound 84, N-[cis-3-hydroxy-3-[(6-oxo-1(6h)-pyridazinyl)methyl]cyclohex-yl]-3-(2-methyl-4-pyridinyl)-1H-indazole-5-carboxamide], 1000 nM; with `O=C(N[C@@H]1CCC[C@](O)(Cn2ccccc2=O)C1)c1ccc2[nH]nc(-c3ccc4nccn4c3)c2c1` (relative stereo) [compound 85, N-[trans-3-hydroxy-3-[(2-oxo-1(2h)-pyridinyl)methyl]cyclohexyl]-3-imidazo[1,2-a]pyridiN-6-yl-1H-indazole-5-carboxamide], 1000 nM.

As to `Cc1cc(-c2n[nH]c3ccc(C(=O)N[C@@H]4CCC[C@](O)(Cn5ncc6cnccc65)C4)cc23)ccn1` (relative stereo) [compound 87, N-[trans-3-hydroxy-3-(1H-pyrazolo[4,3-c]pyridin-1-ylmethyl)cyclohexyl]-3-(2-methyl-4-pyridinyl)-1H-indazole-5-carboxamide], 410 nM corresponded to half-maximal inhibition (IC50). With `Cc1cc(-c2n[nH]c3ccc(C(=O)N[C@@H]4CCC[C@](O)(CN5C(=O)Cc6ccccc65)C4)cc23)ccn1` (relative stereo) [compound 88, N-[trans-3-[(2,3-dihydro-2-oxo-1H-indol-1-yl)methyl]-3-hydroxycyclohexyl]-3-(2-methyl-4-pyridinyl)-1H-indazole-5-carboxamide], the IC50 turned out to be 497 nM. The result for `Cc1cc(-c2n[nH]c3ccc(C(=O)N[C@@H]4CCC[C@](O)(Cn5c(=O)ccc6ccccc65)C4)cc23)ccn1` (relative stereo) [compound 89, N-[trans-3-hydroxy-3-[(2-oxo-1(2h)-quinolinyl)methyl]cyclohex-yl]-3-(2-methyl-4-pyridinyl)-1H-indazole-5-carboxamide] reads 714 nM.

The compound `Cc1cc(-c2n[nH]c3ccc(C(=O)N[C@@H]4CCC[C@](O)(Cn5cc6ccccc6n5)C4)cc23)ccn1` (relative stereo) [compound 90, N-[trans-3-hydroxy-3-(2H-indazol-2-ylmethyl)cyclohexyl]-3-(2-methyl-4-pyridinyl)-1H-indazole-5-carboxamide] gave an IC50 of 27.4 nM.

Compound `Cc1cc(-c2n[nH]c3ccc(C(=O)N[C@@H]4CCC[C@@](O)(Cn5ncc6cnccc65)C4)cc23)ccn1` (relative stereo) [compound 91, N-[cis-3-hydroxy-3-(1H-pyrazolo[4,3-c]pyridin-1-ylmethyl)cyclohexyl]-3-(2-methyl-4-pyridinyl)-1H-indazole-5-carboxamide] yielded an IC50 of 563 nM. On to `Cc1cc(-c2n[nH]c3ccc(C(=O)N[C@@H]4CCC[C@@](O)(CN5C(=O)Cc6ccccc65)C4)cc23)ccn1` (relative stereo) [compound 92, N-[cis-3-[(2,3-dihydro-2-oxo-1H-indol-1-yl)methyl]-3-hydroxycyclohexyl]-3-(2-methyl-4-pyridinyl)-1H-indazole-5-carboxamide], for which the IC50 was 10.8 nM. In turn, `Cc1cc(-c2n[nH]c3ccc(C(=O)N[C@@H]4CCC[C@@](O)(Cn5c(=O)ccc6ccccc65)C4)cc23)ccn1` (relative stereo) [compound 93, N-[cis-3-hydroxy-3-[(2-oxo-1(2h)-quinolinyl)methyl]cyclohex-yl]-3-(2-methyl-4-pyridinyl)-1H-indazole-5-carboxamide] gave an IC50 of 165 nM. Compound `Cc1cc(-c2n[nH]c3ccc(C(=O)N[C@@H]4CCC[C@@](O)(Cn5cc6ccccc6n5)C4)cc23)ccn1` (relative stereo) [compound 94, N-[cis-3-hydroxy-3-(2H-indazol-2-ylmethyl)cyclohexyl]-3-(2-methyl-4-pyridinyl)-1H-indazole-5-carboxamide] registered an IC50 of 35 nM. On to `Cc1cc(-c2n[nH]c3ccc(C(=O)N[C@H]4CCC[C@@](O)(Cn5cc(C#N)c6ccccc65)C4)cc23)ccn1` (relative stereo) [compound 95, N-[trans-3-[(3-cyano-1H-indol-1-yl)methyl]-3-hydroxycyclohexyl]-3-(2-methyl-4-pyridinyl)-1H-indazole-5-carboxamide], for which the IC50 is 1000 nM. Compound `Cc1cc(-c2n[nH]c3ccc(C(=O)N[C@H]4CCC[C@@](O)(Cn5ncc6c(F)cccc65)C4)cc23)ccn1` (relative stereo) [compound 96, N-[trans-3-[(4-fluoro-1H-indazol-1-yl)methyl]-3-hydroxycyclohexyl]-3-(2-methyl-4-pyridinyl)-1H-indazole-5-carboxamide] registered an IC50 of 577 nM. On to `Cc1cc(-c2n[nH]c3ccc(C(=O)N[C@H]4CCC[C@@](O)(Cn5cc6c(F)cccc6n5)C4)cc23)ccn1` (relative stereo) [compound 97, N-[trans-3-[(4-fluoro-2H-indazol-2-yl)methyl]-3-hydroxycyclohexyl]-3-(2-methyl-4-pyridinyl)-1H-indazole-5-carboxamide], for which the IC50 was found to be 1000 nM. The result for `Cc1cc(-c2n[nH]c3ccc(C(=O)N[C@H]4CCC[C@@](O)(Cn5ncc6cc(F)ccc65)C4)cc23)ccn1` (relative stereo) [compound 98, N-[trans-3-[(5-fluoro-1H-indazol-1-yl)methyl]-3-hydroxycyclohexyl]-3-(2-methyl-4-pyridinyl)-1H-indazole-5-carboxamide] reads 1000 nM; that for `Cc1cc(-c2n[nH]c3ccc(C(=O)N[C@H]4CCC[C@@](O)(Cn5cc6cc(F)ccc6n5)C4)cc23)ccn1` (relative stereo) [compound 99, N-[trans-3-[(5-fluoro-2H-indazol-2-yl)methyl]-3-hydroxycyclohexyl]-3-(2-methyl-4-pyridinyl)-1H-indazole-5-carboxamide], 1000 nM; that for `Cc1cc(-c2n[nH]c3ccc(C(=O)N[C@H]4CCC[C@@](O)(Cn5ncc6ccc(F)cc65)C4)cc23)ccn1` (relative stereo) [compound 100, N-[trans-3-[(6-fluoro-1H-indazol-1-yl)methyl]-3-hydroxycyclohexyl]-3-(2-methyl-4-pyridinyl)-1H-indazole-5-carboxamide], 1000 nM.

`Cc1cc(-c2n[nH]c3ccc(C(=O)N[C@H]4CCC[C@@](O)(Cn5cc6cccc(F)c6n5)C4)cc23)ccn1` (relative stereo) [compound 102, N-[trans-3-[(7-fluoro-2H-indazol-2-yl)methyl]-3-hydroxycyclohexyl]-3-(2-methyl-4-pyridinyl)-1H-indazole-5-carboxamide] showed a half-maximal inhibitory concentration (IC50) of 704 nM. Compound `Cc1cc(-c2n[nH]c3ccc(C(=O)N[C@H]4CCC[C@](O)(Cn5ncc6c(F)cccc65)C4)cc23)ccn1` (relative stereo) [compound 103, N-[cis-3-[(4-fluoro-1H-indazol-1-yl)methyl]-3-hydroxycyclohexyl]-3-(2-methyl-4-pyridinyl)-1H-indazole-5-carboxamide] had an IC50 of 21.3 nM. In the case of `Cc1cc(-c2n[nH]c3ccc(C(=O)N[C@H]4CCC[C@@](O)(Cn5ncc6cccc(F)c65)C4)cc23)ccn1` (relative stereo) [compound 104, N-[trans-3-[(7-fluoro-1H-indazol-1-yl)methyl]-3-hydroxycyclohexyl]-3-(2-methyl-4-pyridinyl)-1H-indazole-5-carboxamide], the IC50 was determined as 74.3 nM.

`Cc1cc(-c2n[nH]c3ccc(C(=O)N[C@H]4CCC[C@@](O)(Cn5cc6ccc(C(F)(F)F)cc6n5)C4)cc23)ccn1` (relative stereo) [compound 105, N-[trans-3-hydroxy-3-[[6-(trifluoromethyl)-2H-indazol-2-yl]methyl]cyclohexyl]-3-(2-methyl-4-pyridinyl)-1H-indazole-5-carboxamide]: the IC50 worked out at 1000 nM.

In turn, `Cc1cc(-c2n[nH]c3ccc(C(=O)N[C@H]4CCC[C@](O)(Cn5ncc6ccc(C(F)(F)F)cc65)C4)cc23)ccn1` (relative stereo) [compound 106, N-[cis-3-hydroxy-3-[[6-(trifluoromethyl)-1H-indazol-1-yl]methyl]cyclohexyl]-3-(2-methyl-4-pyridinyl)-1H-indazole-5-carboxamide] had a half-inhibitory concentration (IC50) of 107 nM. In turn, `Cc1cc(-c2n[nH]c3ccc(C(=O)N[C@H]4CCC[C@](O)(Cn5ncc6ccc(F)cc65)C4)cc23)ccn1` (relative stereo) [compound 107, N-[cis-3-[(6-fluoro-1H-indazol-1-yl)methyl]-3-hydroxycyclohexyl]-3-(2-methyl-4-pyridinyl)-1H-indazole-5-carboxamide] yielded an IC50 of 362 nM.
